According to patent US20030143733A1, “Tetrapeptide” (La Jolla Cancer Research Foundation, priority 1985, published 2003):

Assays:
[1] = test system: normal rat kidney cells (NRK); assay: Cell attachment promoting activity assay (peptide coupled via SPDP to rabbit IgG immobilized on plastic); assay type: cell-based; settings: freshly trypsinized NRK cells, one hour incubation
Method: (§1) Those peptides having a COOH-terminal cystine residue were assayed for their activity in promoting cell attachment by first attaching them via the heterobifunctional crosslinker SPDP (N-succinimidyl 3-(2-pyridyldithio) propionate, Sigma, St. Louis, Mo.) to rabbit IgG which was immobilized on plastic. The attachment assay was then carried out as described by Ruoslahti, E. et al., Methods Enzymology 82:803-831 (1981) using freshly trypsinized normal rat kidney cells (NRK). After a one hour incubation, those cells which had attached were fixed, stained and quantitated using either an Artek cell counter or a multiscan spectrophotometer. In all cases, maximum attachment was about 80-90% of the cells plated. The relative activity of each peptide is indicated by the concentration of the peptides in nmoles/ml necessary to achieve half-maximal activity, or, where accurate quantitation was not possible, by the crosses at the right of FIG. 1, and by the graph in FIG. 2.

[2] = test system: attachment of cells to a fibronectin-coated substrate; assay: Inhibition of cell attachment to fibronectin-coated substrate by solubilized peptide; assay type: cell-based; settings: peptide in solubilized form combined with free cells
Method: as §1, with “In all cases, maximum attachment was about 80-90% of the cells plated.” left out
If the mechanism of cell attachment involves the recognition of the amino acid sequence of the tetrapeptide by a receptor on the cell, then it could be postulated that attachment could be inhibited by preventing this recognition by “blocking” the receptor. […] In separate experiments, various concentrations of the tetrapeptide (Arg-Gly-Asp-Ser) and a hexapeptide, Pro-Arg-Gly-Asp-Ser-Gly in a solubilized form were combined with the free cells, and attachment activity measured as above.

Substance | cell attachment promoting activity [1] | inhibition of normal attachment of cells to a fibronectin-coated substrate [2]
H-Arg-Gly-Asp-Ser-OH (RGDS; printed: Arg-Gly-Asp-Ser) | had the property of causing cell attachment | inhibit the normal attachment of cells
PRGDSG [Pro-Arg-Gly-Asp-Ser-Gly] | – | inhibit the normal attachment of cells
RVDSPAC [peptide with substitution of the glycine with the bulky valine residue] | abolished the activity | –
